Source: patent publication US20190029960A1, “Therapeutic Nanoparticles Having EGFR Ligands and Methods of Making and Using Same” (Pfizer Inc., priority 2016, published 2019)

Assays:
[1] = biological target: T1, recombinant human EGFR (Homo sapiens, UniProt P00533); assay: EGF competition ELISA; type: binding
T1 construct: Fc; purchased R&D Systems
Protocol: Plates were blocked for 2 h with 2% BSA in PBS at RT. […] Plates were washed three times with PBS containing 0.05% Tween-20 (PBS-T) and then incubated with a 1:10,000 dilution of streptavidin-HRP (Thermo Fisher Scientific) diluted in assay buffer for 90 min at RT. Plates were washed an additional three times with PBS-T, and then incubated with TMB substrate (BioFx) for 15 min at RT. Reactions were stopped with stop solution (BioFx) and absorbance was read at 450 nm in a microplate reader (SpectraMax M5e, Molecular Devices).
Plates were blocked for 2 hours with 2% BSA in PBS at room temperature (RT). […] Peptides were reconstituted as 100% DMSO stocks, resulting in a final concentration of DMSO in the assay of 2% for all samples. Plates were washed three times with PBS containing 0.05% Tween-20 (PBS-T) and then incubated with a 1:10,000 dilution of streptavidin-HRP (Piece) diluted in assay buffer for 90 minutes at RT. Plates were washed an additional three times with PBS-T and then incubated with TMB substrate (BioFx) for 15 minutes at RT. The reaction was stopped with stop solution (BioFx) and absorbance was read at 450 nm in a microplate reader (SpectraMax M5e, Molecular Devices).

[2] = biological target: T2, EGF bound EGFR (Homo sapiens, UniProt P00533); assay: SPR peptide binding, rhEGF pre-injected; details: With EGF
T2 construct: purchased R&D Systems 344-ER-050 (rhEGFR-Fc); 236-EG (rhEGF)
T2 sequence (P00533 with tags, fused parts or gaps limits assumed): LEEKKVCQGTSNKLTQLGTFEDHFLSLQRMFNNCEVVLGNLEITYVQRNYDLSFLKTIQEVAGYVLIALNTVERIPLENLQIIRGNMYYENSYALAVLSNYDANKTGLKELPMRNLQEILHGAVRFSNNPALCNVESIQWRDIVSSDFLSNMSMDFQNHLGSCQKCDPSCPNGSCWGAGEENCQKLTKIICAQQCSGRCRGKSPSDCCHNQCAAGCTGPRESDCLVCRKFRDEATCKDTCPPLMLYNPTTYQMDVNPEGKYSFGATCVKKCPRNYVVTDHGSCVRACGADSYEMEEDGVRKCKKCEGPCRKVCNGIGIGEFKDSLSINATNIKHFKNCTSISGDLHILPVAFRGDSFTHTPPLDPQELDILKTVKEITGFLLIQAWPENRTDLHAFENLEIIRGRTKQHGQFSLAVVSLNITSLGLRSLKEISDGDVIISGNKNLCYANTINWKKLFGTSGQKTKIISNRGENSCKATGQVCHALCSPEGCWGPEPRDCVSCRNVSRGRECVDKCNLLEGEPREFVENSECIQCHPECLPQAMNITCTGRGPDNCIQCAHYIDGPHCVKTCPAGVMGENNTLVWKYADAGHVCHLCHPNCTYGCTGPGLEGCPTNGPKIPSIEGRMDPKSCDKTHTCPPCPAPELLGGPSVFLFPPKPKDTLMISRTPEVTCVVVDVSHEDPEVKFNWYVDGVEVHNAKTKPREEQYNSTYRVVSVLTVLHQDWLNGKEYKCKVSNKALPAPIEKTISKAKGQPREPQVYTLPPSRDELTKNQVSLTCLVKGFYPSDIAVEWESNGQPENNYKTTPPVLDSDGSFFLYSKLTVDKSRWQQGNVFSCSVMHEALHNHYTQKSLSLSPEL
T2 sequence (P01133 971-1023 partner limits assumed): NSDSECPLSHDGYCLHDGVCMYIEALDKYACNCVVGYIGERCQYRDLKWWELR
Protocol: (§1) Surface plasmon resonance (SPR) binding studies were carried out on a Biacore T200 instrument (GE Healthcare). Approximately 10,000 RU of anti-Fc antibody (GE Healthcare, Cat #BR100839) was immobilized via amine coupling on each of flow cells 1 and 2 of a CM5 dextran-coated gold sensor chip (GE Healthcare, Cat #BR100530). […] The contact time and resulting amount of rhEGFR-Fc capture was varied based on the nature of the analyte, namely whether it was a peptide or nanoparticle.
(§2) Peptide binding assays were carried out in 10 mM PBS buffer supplemented with 0.05% surfactant P20 and 5% DMSO by volume, at 25° C. Peptides were injected over the rhEGFR-Fc surface for 60 s, followed by dissociation (buffer injection) for 60 s and regeneration with a 10 s pulse of 3M MgCl2. A fresh rhEGFR-Fc surface was generated for each concentration of each peptide tested. Peptide binding data was analyzed by fitting to a 1:1 Langmuir kinetic model to obtain the on-rate (ka), off-rate (kd) and/or equilibrium binding constant (KD) of the interaction.

[3] = biological target: T3, Fc tagged recombinant human EGFR (rhEGFR-Fc) (Homo sapiens, UniProt P00533); type: binding; details: Without EGF
T3 construct: purchased R&D Systems 344-ER-050
T3 sequence (P00533 with tags, fused parts or gaps limits assumed): as the sequence (P00533 with tags, fused parts or gaps limits assumed) above
Protocol: as §1, §2

T1 sequence (P00533 with tags, fused parts or gaps limits assumed): as above

| SMILES | IC50 [1] | kd [2] | kd [3] |
| --- | --- | --- | --- |
| CC[C@H](C)[C@H](NC(=O)[C@@H]1CSSC[C@H](NC(=O)[C@H](CCC(=O)O)NC(=O)[C@H](CO)NC(C)=O)C(=O)N[C@@H](Cc2ccccc2)C(=O)N2CCC[C@H]2C(=O)N[C@@H](C)C(=O)N[C@@H](C)C(=O)N2CCC[C@H]2C(=O)N[C@@H](CC(=O)O)C(=O)N[C@@H](Cc2c[nH]c3ccccc23)C(=O)N[C@@H](CC(C)C)C(=O)N[C@@H](CO)C(=O)N1)C(=O)N[C@@H](CC(C)C)C(=O)NCC(=O)NCC(=O)N[C@@H](CCCCNC(=O)CCOCCOCCOCCOCCOCCNC(=O)CCC(=O)N1Cc2ccccc2C#Cc2ccccc21)C(N)=O [Peptide P1-3] | 4.1 µM | – | – |
| CC(=O)N[C@@H](CC(=O)O)C(=O)N1CCC[C@H]1C(=O)N[C@H]1CSSC[C@@H](C(=O)N[C@@H](CC(C)C)C(=O)N[C@@H](CCC(N)=O)C(=O)NCC(=O)NCC(=O)N[C@@H](CCCCNC(=O)CCOCCOCCOCCOCCOCCNC(=O)CCC(=O)N2Cc3ccccc3C#Cc3ccccc32)C(N)=O)NC(=O)[C@H](CCC(=O)O)NC(=O)[C@H](CCCNC(=N)N)NC(=O)CNC(=O)[C@H](Cc2c[nH]c3ccccc23)NC(=O)[C@H](C(C)C)NC(=O)[C@H](CCC(=O)O)NC(=O)[C@H](Cc2c[nH]c3ccccc23)NC(=O)[C@H]([C@@H](C)O)NC1=O [Peptide P2] | – | 7 ± 2 × 10^−3 s^−1 | 9 ± 2 × 10^−3 s^−1 |
